Series [1] is described as follows: Maximum absorption wavelength of the compounds. In kind it is physicochemical. The text has this: Some representative examples of the compounds utilizable as the photochemotherapeutic agent according to the present invention are shown below.
For series [2] the following is noted: background art statement; cited from earlier work.

For the compound `CCN(CC)c1ccc(C(=CC=CC(=C2C=CC(=[N+](CC)CC)C=C2)c2ccc(N(CC)CC)cc2)c2ccc(N(CC)CC)cc2)cc1` [Polymethine type 1], the “Maximum absorption wavelength (λmax)” value in series [1] worked out at 820 nm.

With `CC1CC(C=CC=C/C=C2\CC(C)Cc3c(-c4ccccc4)cc(-c4ccccc4)[o+]c32)=C2OC(c3ccccc3)=CC(c3ccccc3)=C2C1` (stereo not drawn) [Polymethine type 4], the “Maximum absorption wavelength (λmax)” value in series [1] was determined as 1045 nm.

With dihematoporphyrin [Photofrin], the maximum absorption wavelength in series [2] is reported as 363 nm.

The record behind these values is patent publication US6500816B1, “Remedies for photochemotherapy” (Nippon Kayaku Kabushiki Kaisha, priority 1998, dated 2002).
